# Results: US10618900B2, “5-aromatic alkynyl substituted benzamide compound and preparation method, pharmaceutical composition, and use thereof” (SHANGHAI INSTITUTE OF MATERIA MEDICA, CHINESE ACADEMY OF …, priority 2015, dated 2020)
# Like-named read-outs stand apart in the source and are kept apart here.
# How the values were obtained:
# Format in all cases: in vivo
# Fmr1 knockout mice = experiment: Audiogenic epilepsy induced animal model of Fmr1 knockout mice; conditions: for Seizure level: level 0-4
# Experimental: In this study, we used audiogenic epilepsy induced animal model of Fmr1 knockout mice, and evaluated the efficacy of compound ZD043 with epilepsy seizure latency, seizure level and epileptic mortality as evaluation indexes.
# Species, strain: Fmr1 knockout mice, FVB.129P2-Pde6b^+ Tyr^c-ch Fmr1^tm1Cgr/J (strain number 004624)
# Test reagent and preparation method: before the experiment, 2.0 mg ZD043 was weighed in 2 mL centrifuge tube, 10 uL DMSO was taken with a precise pipette to dissolve ZD043 powder, then 10 uL Tween80 was added, mixed and 980 uL of saline was added, well mixed to form a suspension liquid.
# Methods: The mice were weighed on the day of the experiment. The mice were injected intraperitoneally into 19 to 22 days Fmr1 knockout mice respectively according to the experimental design group 30 minutes before the convulsive test. The mice to be tested were transferred to a sonic seizure test laboratory, placed in a transparent organic glass bucket, and a high-decibel siren loudspeaker was fixed on the top of organic glass bucket. Before delivering the stimulate sound, the mouse was allowed to explore freely for 1 minute, then turn on the loudspeaker, video recorded for the whole process by surveillance system, sound stimulated (≥120 dB) for 3 minutes, or stop after the animal was died, and the experiment was ended.
# Test method: After the end of the experiment, the epilepsy seizure latency (2 grade appearance was regarded as seizures, and the longest latency period was recorded as 300 seconds if no epilepsy was observed) and seizure level (Level 0: no epileptic response; Level 1: rapid running and continuous jump; Level 2: paroxysmal epilepsy; Level 3: tonic epilepsy; Level 4: death) were analyzed according to video record.
# Data processing: calculate the mean and standard error of the epilepsy seizure latency and seizure level as well as the percentage of epilepsy death of each group.
# [1] = Determination of brain tissue content in rats; conditions: rat
# Experimental: Six healthy rats weighing 150-200 g were randomly divided into […] (n=3). The rats were given 10 mL/kg by gavage and intravenous injection, and the dose of gavage was 20 mg/kg, and the dose of intravenous administration was 10 mg/kg. The drug was formulated in DMSO/Tween 80/saline (5:5:90, v/v/v). The rats were fasted for 12 h before testing, and drinked water ad libitum. 2 h after administration, all rats ate together. […]
# A physiological saline solution was added (1:10, weight:volume) and the mixture was sufficiently homogenized to form a homogenate. 100 uL homogenate was taken, and 300 uL dichloromethane:methanol (3:2) solution was added, mixed uniformly through vortex oscillation and centrifugated at 14000 rpm for 10 min. The clear liquor was taken. The sample was dried with nitrogen and stored in the 4° C. refrigerator.
# mice = experiment: Head twitches test (5-HTP induced); conditions: 20 mg/kg, intraperitoneal, in 6 min, FIG. 2
# Text: Experimental principle: Model Head Thrust Test (HTT) is first raised by Corne et al. in 1963, head twitches syndrome caused by 5-HT receptor excitement may be mediated through the 5-HT2 receptor. The head twitches behavior induced by 5-HTP in mice is more sensitive to antidepressants with different action mechanisms, such as citalopram, fluvoxamine and other 5-HT retake inhibitors, desipramine, maprotiline, nomifensine and other NA retake inhibitors and imipramine acting on both 5-HT and NA system.
# Experimental method: 20-24 g male mice were selected. 3 h before the test, 100 mg/kg pargyline was intraperitoneal injected and then intraperitoneal injected with test drugs or saline. 5-HTP (5 mg/kg, ip) was injected 30 min later. After 10 min, the observation was started and the number of mice head twitches in 6 min was recorded. The numbers of the head twitches of experimental group and the saline control group were compared.
# ICR mice = experiment: Mouse forced swimming experiment; conditions: later 4 min of 6 min
# Experimental: Experimental principle: The principle of Mouse Forced Swimming Test (FST) is to allow the mouse to swim in a limited space from which it can not escape, thus inducing animal to non-movement state which reflects the animal's desperate behavior.
# Experimental animals: ICR mice, 20-28 g, both male and female
# Sample treatment: The test compounds were ground with 1% CMC (sodium carboxymethyl cellulose) aqueous solution to prepare a homogeneous solution. In vivo dose was 5 mg/kg, 10 mg/kg and 20 mg/kg, the compound was oral administered at 0.1 ml/10 g volume/body weight. Positive control drugs (amitriptyline and fluoxetine) were dissolved with 0.9% saline, in vivo dose was 10 mg/kg, administered by intraperitoneal injection at 0.1 ml/10 g volume/body weight. (Note: the mice were fasted for 8 h and drinked water ad libitum before the compound was given.)
# Experimental Methods: mice were grouped randomly. […] On the second day of the test, the mice were orally administered the compound. After 1 hour (0.5 hours after intraperitoneal injection), the mice were then put in water to record the immobility time in the later 4 min of 6 min.
smiles,measurement,setting,value
Cc1nc(C#Cc2ccc(F)c(C(=O)Nc3cccnc3)c2)cs1 [ZD043],Mortality (%),Fmr1 knockout mice; 10 mg/kg intraperitoneal,25%
same,Latency,"Fmr1 knockout mice; 10 mg/kg intraperitoneal, single injection, 30 min before test",133.9 s
same,Seizure level,Fmr1 knockout mice; 10 mg/kg intraperitoneal,1.4
same,Latency,Fmr1 knockout mice; 20 mg/kg intraperitoneal,123.1 s
same,Mortality (%),Fmr1 knockout mice; 20 mg/kg intraperitoneal,12.5%
same,Seizure level,Fmr1 knockout mice; 20 mg/kg intraperitoneal,1.5
same,Latency,Fmr1 knockout mice; 30 mg/kg intraperitoneal,180 s
same,Mortality (%),Fmr1 knockout mice; 30 mg/kg intraperitoneal,0%
same,Seizure level,Fmr1 knockout mice; 30 mg/kg intraperitoneal,0
same,concentration at 0.25 h,"[1]; cerebrospinal fluid, sampling time 0.25 h, read-out: Cerebrospinal fluid",25.5 ng/mL
same,concentration at 1 h,"[1]; cerebrospinal fluid, sampling time 1 h, read-out: Cerebrospinal fluid",21.3 ng/mL
same,concentration at 3 h,"[1]; cerebrospinal fluid, sampling time 3 h, read-out: Cerebrospinal fluid",7.99 ng/mL
same,concentration at 0.25 h,"[1]; plasma, sampling time 0.25 h, read-out: Plasma",1240 ng/mL
same,concentration at 1 h,"[1]; plasma, sampling time 1 h, read-out: Plasma",1130 ng/mL
same,concentration at 3 h,"[1]; plasma, sampling time 3 h, read-out: Plasma",358 ng/mL
same,drug concentration ratio in the brain and plasma,[1]; after administration,1/2
same,B/P,[1]; sampling time 0.25 h,1/2
same,concentration at 0.25 h,"[1]; sampling time 0.25 h, read-out: brain",589 ng/g
same,B/P,[1]; sampling time 1 h,1/2
same,Csf/P,[1]; sampling time 1 h,1/53
same,concentration at 1 h,"[1]; sampling time 1 h, read-out: brain",559 ng/g
same,Csf/P,[1]; sampling time 3 h,1/45
same,concentration at 3 h,"[1]; sampling time 3 h, read-out: brain",164 ng/g
same,number of head twitches,mice,increase
same,immobility time (%) Mean ± SEM,ICR mice; 5 mg/kg oral,reduced
same,immobility time (%) Mean ± SEM,"ICR mice; 5 mg/kg oral, listed as D043",74.97 ± 18.79%
same,immobility time (%) Mean ± SEM,ICR mice; 10 mg/kg oral,reduced
same,immobility time (%) Mean ± SEM,"ICR mice; 10 mg/kg oral, listed as D043",66.01 ± 21.08%
same,immobility time (%) Mean ± SEM,ICR mice; 20 mg/kg oral,reduced
same,immobility time (%) Mean ± SEM,"ICR mice; 20 mg/kg oral, listed as D043",46.50 ± 13.03%
